Test results: US20240174598A1, “COMPOUNDS FOR THE TREATMENT OF DISORDERS AND SALTS AND POLYMORPHS THEREOF” (OccuRx Pty Ltd, priority 2021, published 2024)
Counter-ions that a name gives are not always drawn.

Tests used:
[1] = Intrinsic dissolution studies (disc, Wood's die); assay type: physicochemical
Procedure: Discs for the intrinsic dissolution evaluation were prepared by weighing approximately 175 mg of each batch and compressing with a small hydraulic press in a 13 mm Wood's die for 3 minutes at a force of approximately 3000 lbs. The surface of each disc was examined carefully to ensure that it was uniform, smooth and free from loose powder.
The dissolution experiments were conducted by attaching the Wood's die containing the disc, to the matching shafts on an Erweka DT6 dissolution apparatus. The discs were lowered into the media (500 mL at 37° C.) and immediately rotated at 100 rpm. Duplicate samples of the media (0.2 mL) were removed prior to immersion of the disc and then at 2, 5, 10, 15, 20, 25, 30, 60 and 90 minutes after the experiment was initiated. Sampling was discontinued if substantial dissolution was visible or if the disc disintegrated in the media.
At the end of each experiment, the discs were removed from the media and examined to ensure that the surface of the discs remained uniform and to qualitatively assess the extent of dissolution over the course of the experiment. Media samples were centrifuged (10000 rpm×3 min) and a small aliquot (50 μL) removed, 5-fold diluted with 50% aqueous acetonitrile prior to HPLC analysis.

[2] = Dynamic vapor sorption (DVS) analysis; assay type: physicochemical; conditions: for stability to humidity: over a wide range of humidity
Procedure: Approximately, 10-20 mg of sample was placed into a mesh vapor sorption balance pan and loaded into a DVS Intrinsic dynamic vapor sorption balance by Surface Measurement Systems. The sample was subjected to a ramping profile from 40-90% relative humidity (RH) at 10% increments, maintaining the sample at each step until a stable weight had been achieved (dm/dt 0.004%, minimum step length 30 minutes, maximum step length 500 minutes) at 25° C. After completion of the sorption cycle, the sample was dried using the same procedure to 0% RH and then a second sorption cycle back to 40% RH. Two cycles were performed. The weight change during the sorption/desorption cycles were plotted, allowing for the hygroscopic nature of the sample to be determined. XRPD analysis was then carried out on any solid retained.

dissolution profile compared to the free acid of the compound of Formula (I) ([1]; FaSSIF media, 37° C. (FIG. 12))	dissolution profile compared to the free acid of the compound of Formula (I) ([1]; PBS media, 37° C. (FIG. 13))	water uptake corresponding to the mass increase ([2]; at 90% RH)	mass increase by dynamic vapor sorption ([2]; at 90% Relative Humidity (RH))	stability to humidity [2]	hygroscopicity by dynamic vapor sorption/desorption analysis [2]	water uptake by dynamic vapor sorption ([2]; at 90% RH)	SMILES
superior	superior	1.3 equiv. of water	4.2 wt. %	stable over a wide range of humidity	–	–	COc1cc(/C=C/C(=O)Nc2ccccc2C(=O)O)ccc1OC(F)F [Crystalline Salt A]
superior	equivalent, if not better	–	–	stable over a wide range of humidity	non-hygroscopic	negligible water uptake	COc1cc(/C=C/C(=O)Nc2ccccc2C(=O)O)ccc1OC(F)F [Crystalline Salt B]
